Values of other authors, collected in patent publication US8581001B2, “Metformin-cysteine prodrug” (Codman & Shurtleff, priority 2010, dated 2013).
Blank lines part the entries; values can stand above or below the compound they belong to.

Legend:
human patients = human patients (NASH)
[1] = not given; remark: listed apart in the source
LAT1 = LAT1 (Homo sapiens, UniProt Q01650)
LAT2 = target: T1, LAT2 (Homo sapiens, UniProt Q9UHI5)
T1 sequence (Q9UHI5 1-535): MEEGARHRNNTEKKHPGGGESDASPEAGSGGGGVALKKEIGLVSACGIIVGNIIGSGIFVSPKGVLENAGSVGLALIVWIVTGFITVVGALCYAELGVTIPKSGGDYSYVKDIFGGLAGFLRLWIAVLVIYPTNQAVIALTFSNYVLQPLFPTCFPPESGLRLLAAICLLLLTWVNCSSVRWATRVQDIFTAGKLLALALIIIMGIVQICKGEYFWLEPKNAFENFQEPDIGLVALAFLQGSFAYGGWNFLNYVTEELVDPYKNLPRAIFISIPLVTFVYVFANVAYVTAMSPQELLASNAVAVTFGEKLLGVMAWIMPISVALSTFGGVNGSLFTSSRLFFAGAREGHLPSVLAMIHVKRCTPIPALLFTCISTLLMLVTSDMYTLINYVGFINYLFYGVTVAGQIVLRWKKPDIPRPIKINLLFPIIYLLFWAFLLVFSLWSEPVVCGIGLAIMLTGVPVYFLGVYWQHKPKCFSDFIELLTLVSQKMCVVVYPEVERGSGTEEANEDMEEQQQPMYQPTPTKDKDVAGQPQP
T1 sequence (P08195 1-529 partner): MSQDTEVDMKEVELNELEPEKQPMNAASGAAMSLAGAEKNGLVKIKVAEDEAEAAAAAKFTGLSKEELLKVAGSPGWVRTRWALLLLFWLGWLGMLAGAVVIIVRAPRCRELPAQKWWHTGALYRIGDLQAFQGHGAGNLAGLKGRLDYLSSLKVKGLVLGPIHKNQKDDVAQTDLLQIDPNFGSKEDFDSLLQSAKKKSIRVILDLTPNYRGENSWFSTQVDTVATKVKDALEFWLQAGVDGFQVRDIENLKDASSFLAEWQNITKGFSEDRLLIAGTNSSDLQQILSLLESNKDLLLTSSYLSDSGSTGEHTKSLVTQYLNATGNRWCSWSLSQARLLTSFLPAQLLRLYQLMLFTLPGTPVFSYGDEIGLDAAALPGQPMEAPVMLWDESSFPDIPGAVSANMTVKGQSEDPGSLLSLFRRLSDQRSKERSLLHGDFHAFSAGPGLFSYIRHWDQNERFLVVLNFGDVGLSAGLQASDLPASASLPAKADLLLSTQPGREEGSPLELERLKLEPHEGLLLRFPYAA

LAT1, sequence (Q01650 whole entry, species assumed, one chain of several): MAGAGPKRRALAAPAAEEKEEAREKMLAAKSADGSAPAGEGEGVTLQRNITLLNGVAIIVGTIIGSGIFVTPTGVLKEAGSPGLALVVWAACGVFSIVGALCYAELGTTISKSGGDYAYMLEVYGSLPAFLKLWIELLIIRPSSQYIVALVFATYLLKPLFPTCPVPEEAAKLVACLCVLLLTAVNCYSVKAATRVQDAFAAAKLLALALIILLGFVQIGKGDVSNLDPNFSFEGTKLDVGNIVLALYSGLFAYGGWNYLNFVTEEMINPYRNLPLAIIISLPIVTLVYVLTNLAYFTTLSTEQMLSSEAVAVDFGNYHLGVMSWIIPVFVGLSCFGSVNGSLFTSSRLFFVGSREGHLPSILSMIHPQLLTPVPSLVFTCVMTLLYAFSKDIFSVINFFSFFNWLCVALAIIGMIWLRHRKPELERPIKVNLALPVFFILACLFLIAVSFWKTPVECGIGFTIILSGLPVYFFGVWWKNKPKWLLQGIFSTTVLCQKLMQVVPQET

Compound: N[C@@H](CCC(=O)N[C@@H](CSSC[C@H](N)C(=O)O)C(=O)NCC(=O)O)C(=O)O [Cy-LLGSH]
protection against acetaminophen-induced hepatotoxicity (mice): highly effective

Compound: CC(=O)N[C@@H](CS)C(=O)O [NAC, n-acetylcysteine]
amelioration of the complications of non-alcoholic fatty liver disease (human patients): neither metformin nor NAC alone provided any significant benefits

absorption in the colon (colon): poorly absorbed | uptake in the small intestine (small intestine): effectively taken up | window in which metformin is above ½ of its Cmax ([1]; FIG. 4 of US 2007-0154548): about 6 hours | time window for effective plasma concentrations ([1]; in vivo): about 6 hours
Compound: CN(C)C(=N)N=C(N)N [metformin]
amelioration of the complications of non-alcoholic fatty liver disease (human patients): neither metformin nor NAC alone provided any significant benefits

Compound: N[C@@H](CSN=O)C(=O)O [s-nitroso-L-cysteine]
transport by LAT1 transporter (LAT1): efficiently transported | transport by LAT2 transporter (LAT2): efficiently transported
